Results published in US20240287074A1, “SALTS AND CRYSTALS” (Kinoxis Therapeutics Pty Ltd, priority 2020, published 2024).
In brackets after ≈: the same amount, converted by molar mass. Entries after “also recorded” stand apart in the source; their conditions may differ. Where a name gives a salt, the structure may show the parent alone. Read-outs that look alike come from different tables or passages of the source.

Assays:
Assay type in all cases: physicochemical
[1] = Primary salt screen: XRPD pattern after drying and after 40° C./75% RH; conditions: for Post-Drying (XRPD pattern): oven at 40° C. for about 24 hours; for Post 40° C./75% RH (XRPD pattern): stability chamber at 40° C./75% RH for about 24 hours; for Comments (stability): salt screen summary
Method: The following procedure was used: • Approximately 30 mg of 1-methyl-1,4,5,10-tetrahydropyrazolo[3,4-b][1,5]benzodiazepine freebase was weighed into 5×1.5 mL glass vials. • 300 μL of selected solvent system was added to each vial to form a mobile slurry, and a beige slurry was observed. • 1.05 (or 0.525 for the hemi experiments) equivalents of acid counterion (see Table 1) was added to each sample and initial observations were recorded. • The samples were temperature cycled between ambient and 40° C. in 4-hour cycles for about 72 hours. • The samples were collected, and observations made. • Samples in which solids were observed were filtered via centrifugation and the solids were loaded onto a multi-well XRPD plate and analyzed by XRPD. • Samples in which no solids were observed were uncapped and left undisturbed to allow evaporation at ambient temperature.

[2] = 1-week stability studies (XRPD, HPLC)
Method: The isolated 1-methyl-1,4,5,10-tetrahydropyrazolo[3,4-b][1,5]benzodiazepine freebase was characterized by TG/DTA, DSC, DVS with post-DVS, XRPD, HPLC, ^1H NMR and LC-MS, as per the methods detailed above. The 1-methyl-1,4,5,10-tetrahydropyrazolo[3,4-b][1,5]benzodiazepine freebase was stored at 40° C./75% relative humidity (RH) for 1 week to determine the stability of the material at increased RH and to identify potential hydrate formation.
One-week stability studies were conducted on the freebase (example 1), phosphate form 1 (example 3) and L-tartrate form 1 (example 5) salts using the following procedures: • Approximately 20 mg of each form was weighed into 3×2 mL glass vials. • One vial for each form was stored under the following conditions for 1-week: • 1. Ambient temperature, light and humidity (unsealed vial) • 2. 40° C./75% RH (unsealed vial) • 3. 80° C. (sealed vial) • The samples were collected after 1-week and observations were made. • The solids were analyzed by XRPD and HPLC.

[3] = Thermodynamic solubility in PBS buffer pH 7.4; conditions: for solubility: PBS buffer at pH 7.4, ambient temperature, about 24 hours, HPLC; for pH (t = 24 h): mother liquor of PBS pH 7.4 slurry
Method: The thermodynamic solubility of freebase (example 1), phosphate form 1 (example 3) and L-tartrate form 1 (example 5) were assessed in phosphate buffered saline (PBS) buffer at pH 7.4 according to the following procedure: • Approximately 30 mg of each form was weighed into 2 mL glass vials. • 100 μL of buffer solution was added to each vial until partial dissolution was observed. • The observed slurries were agitated at ambient temperature for about 24 hours. • The samples were collected, and observations were recorded. • The samples were filtered via centrifugation. • The pH of the mother liquors were recorded. • The concentration of the mother liquors were recorded by HPLC.

[4] = Dynamic / gravimetric vapour sorption (DVS/GVS) hygroscopicity; conditions: for hygroscopicity: DVS, 25° C.
Method: Approximately, 10-20 mg of sample was placed into a mesh vapour sorption balance pan and loaded into a DVS Intrinsic dynamic vapour sorption balance by Surface Measurement Systems. The sample was subjected to a ramping profile from 40-90% relative humidity (RH) at 10% increments, maintaining the sample at each step until a stable weight had been achieved (dm/dt 0.004%, minimum step length 30 minutes, maximum step length 500 minutes) at 25° C. After completion of the sorption cycle, the sample was dried using the same procedure to 0% RH and then a second sorption cycle back to 40% RH. Two cycles were performed. The weight change during the sorption/desorption cycles were plotted, allowing for the hygroscopic nature of the sample to be determined. XRPD analysis was then carried out on any solid retained.
Approximately 10-20 mg of sample was placed into a mesh vapour sorption balance pan and loaded into an IGASorp Moisture Sorption Analyser balance by Hiden Analytical. The sample was subjected to a ramping profile from 40-90% relative humidity (RH) at 10% increments, maintaining the sample at each step until a stable weight had been achieved (98% step completion, minimum step length 30 minutes, maximum step length 60 minutes) at 25° C. After completion of the sorption cycle, the sample was dried using the same procedure to 0% RH, and finally taken back to the starting point of 40% RH. Two cycles were performed. The weight change during the sorption/desorption cycles were plotted, allowing for the hygroscopic nature of the sample to be determined.

[5] = Hydration studies in methanol/water mixtures; conditions: MeOH/water mixtures, water activity 0.2, 0.6, 0.8, about 24 hours
Method: (§1) The following procedure was used during the hydration studies: • Approximately 20 mg of phosphate form 1 (Example 3) and L-tartrate form 1 (Example 5) were weighed into 2 mL glass vials. • Selected methanol/deionized water mixtures (see Table 5) were added to each sample in 100 μL aliquots until a mobile slurry was observed. • The slurries were agitated at ambient temperature for about 24 hours. • The slurries were collected and filtered via centrifugation. • The isolated solids were analyzed by XRPD. • The pH of the mother liquors were recorded.

[6] = Salt disproportionation studies in deionized water; conditions: about 24 hours; for salt disproportionation: slurry in deionized water, ambient temperature
Method: as §1, with “salt disproportionation” for “hydration”, “Deionized” for “Selected methanol/deionized”, “was” for “mixtures (see Table 5) were”

[7] = 1 week, ambient temperature, light and humidity, 40° C./75% RH, 80° C.

Row | Post-Drying (XRPD pattern) [1] | Post 40° C./75% RH (XRPD pattern) [1] | SMILES | other results
1 | Pattern 2 | Pattern 3 | Cn1ncc2c1Nc1ccccc1NC2 [Isethionate pattern 2] | 
2 | Pattern 1 | Pattern 1 | Cn1ncc2c1Nc1ccccc1NC2 [Napadisylate pattern 1] | Comments (stability) [1]: Good
3 |  |  | Cn1ncc2c1Nc1ccccc1NC2 [freebase, 1-Methyl-1,4,5,10-tetrahydropyrazolo[3,4-b][1,5]benzodiazepine] | changes in form or purity ([2]; 1 week at 40° C./75% RH and 80° C.): no changes in form or purity; XRPD diffractogram after storage ([2]; 1 week under ambient conditions (temperature, light, humidity)): An additional peak was observed; changes in pattern/form by XRPD post-storage ([2]; 40° C./75% RH for 1 week): No significant changes in pattern; also recorded: no changes in form; stability under ambient light ([2]; conclusion of 1-week stability study): may be unstable under ambient light; changes in purity by HPLC ([2]; stored under ambient conditions): did not show any significant changes in purity; solubility [3]: 300 µg/mL (≈ 1500 µM); pH (t = 24 h) [3]: 7.32; change in form by XRPD post-DVS analysis [4]: No change in form; hygroscopicity by DVS ([4]; above 70% RH): hygroscopic; DVS mass increase ([4]; between 0 and 70% RH): about 0.11%; hygroscopicity by DVS ([4]; between 0 and 70% RH): non-hygroscopic; DVS mass increase ([4]; between 70 and 90% RH): about 2.74%
4 | Pattern 3 | Pattern 3 | Cn1ncc2c1Nc1ccccc1NC2 [Tosylate pattern 3] | 
5 | Pattern 3 | Deliquesced | Cn1ncc2c1Nc1ccccc1NC2 [Mesylate pattern 3] | 
6 | Pattern 1 | Pattern 1, 2 | Cn1ncc2c1Nc1ccccc1NC2 [Besylate pattern 1] | 
7 | Pattern 1 | Pattern 1 | Cn1ncc2c1Nc1ccccc1NC2 [Tosylate pattern 1] | Comments (stability) [1]: Good
8 | Pattern 2 | Pattern 2 | Cn1ncc2c1Nc1ccccc1NC2 [Sulfate pattern 2] | 
9 | Pattern 2 | Pattern 1 | Cn1ncc2c1Nc1ccccc1NC2 [Mesylate pattern 2] | 
10 | Pattern 1 | Pattern 2 | Cn1ncc2c1Nc1ccccc1NC2 [Esylate pattern 1] | 
11 | Pattern 1 | Pattern 3 | Cn1ncc2c1Nc1ccccc1NC2 [Isethionate pattern 1] | 
12 | Pattern 2 | Pattern 2 | Cn1ncc2c1Nc1ccccc1NC2 [Esylate pattern 2] | 
13 | Pattern 3 | Pattern 3 | Cn1ncc2c1Nc1ccccc1NC2 [Sulfate pattern 3] | 
14 | Pattern 1 | Pattern 1/2 | Cn1ncc2c1Nc1ccccc1NC2 [Mesylate pattern 1] | 
15 | Pattern 2 | Pattern 2 | Cn1ncc2c1Nc1ccccc1NC2 [Edisylate pattern 2] | 
16 | Pattern 1 | Pattern 4 | Cn1ncc2c1Nc1ccccc1NC2 [Sulfate pattern 1] | 
17 | Pattern 2 | Pattern 2 | Cn1ncc2c1Nc1ccccc1NC2 [Tosylate pattern 2] | 
18 | Pattern 1 | Pattern 1 | Cn1ncc2c1Nc1ccccc1NC2 [Maleate pattern 1] | 
19 |  |  | Cn1ncc2c1Nc1ccccc1NC2 [L-tartrate form 1, L-tartaric acid addition salt of 1-methyl-1,4,5,10-tetrahydropyrazolo[3,4-b][1,5]benzodiazepine] | changes in form by XRPD [2, 7]: no changes in form; changes in purity by HPLC [2, 7]: did not identify any significant changes in purity; change in XRPD pattern [5]: No change in XRPD pattern; hydrate formation [5]: Hydrate formation was not observed; hydrate formation ([5]; listed as L-tartrate): No evidence; solubility [3]: 6300 µg/mL; pH (t = 24 h) [3]: 3.36; thermal stability and hygroscopicity ([1]; conclusion of salt screen): acceptable thermal stability and hygroscopicity; Post-Drying (XRPD pattern) ([1]; listed as Tartrate pattern 1): Pattern 1; Comments (stability) [1]: Good; Post 40° C./75% RH (XRPD pattern) ([1]; listed as Tartrate pattern 1): Pattern 1; change in form by XRPD post-DVS analysis [4]: No evidence of form changes or hydrate formation; hygroscopicity [4]: slightly hygroscopic; hygroscopicity ([4]; listed as L-tartrate salt): slightly hygroscopic; DVS mass increase ([4]; at 90% RH): about 0.6%; DVS mass increase ([4]; at 90% RH, listed as L-tartrate salt): about 0.6 wt. %; change in form by XRPD post-DVS analysis ([4]; listed as L-tartrate salt): no changes in form; change in XRPD pattern ([6]; material slurried in water): No change in XRPD pattern; salt disproportionation [6]: Salt disproportionation was not observed; salt disproportionation ([6]; listed as L-tartrate): No evidence
20 | Pattern 1 | Pattern 1 | Cn1ncc2c1Nc1ccccc1NC2 [Hydrobromide pattern 1] | Comments (stability) [1]: Good
21 | Pattern 1 | Pattern 2 | Cn1ncc2c1Nc1ccccc1NC2 [Edisylate pattern 1] | Comments (stability) [1]: Good
22 | Pattern 1 | Pattern 2 | Cn1ncc2c1Nc1ccccc1NC2 [Napsylate pattern 1] | Comments (stability) [1]: Good
23 | Pattern 2 | Pattern 2 | Cn1ncc2c1Nc1ccccc1NC2 [Hydrobromide pattern 2] | 
24 | Pattern 2 | Pattern 2 | Cn1ncc2c1Nc1ccccc1NC2 [Napsylate pattern 2] | 
25 | Pattern 2 | Pattern 2 | Cn1ncc2c1Nc1ccccc1NC2 [Napadisylate pattern 2] | 
